Measured values from patent US10863753B2, “Iron-fortified tea preparations and methods of making same” (The Governing Council of the University of Toronto, priority 2015, dated 2020).
Values joined by “and” are separate entries in the source; they are usually repeats but may differ in a detail not shown here. Equal entries are not always repeated. Where two headings read alike, the source gives them in different places.

Legend:
[1] = assay type: physicochemical; conditions: for Precipitation in tea extract / Reduction of iron-polyphenol complex formation: tea extract 1 gGAE/L
Procedure: The tea extract was prepared using a solution of 50% by volume N,N-dimethylformamide (DMF) and 50% by volume reverse osmosis purified (RO) water with black tea leaves. […] Tea extract was diluted to the concentration of tea (1 gGAE/L) or to 1/10th of that concentration (0.1 gGAE/L) for use in these experiments and pH was controlled using hydrochloric acid and sodium hydroxide.
Iron complex formation was measured using spectrophotometry and analyzed by normalizing against ferrous sulfate in gallic acid (GA) at the phenolic concentration of tea. Therefore, 100% represents the peak absorbance of ferrous sulfate in a 1 g/L gallic acid solution at pH 5 or pH 7.

[2] = Iron-polyphenol complex formation in brewed tea (spectrophotometry / colour); assay type: physicochemical
Procedure: Iron polyphenol complex was measured using spectrophotometry. 2 L of tea were freshly prepared and brewed for 5 minutes. Tea leaves were removed and the liquid was distributed into 6 beakers (250 ml each). A stock solution of ferric EDTA was prepared and increasing volumes were added to each beaker. The maximum UV and Visible light absorbance wavelength for the tea was determined Absorbance at this maximum absorbance wavelength was measured after 5, 20 and 60 minutes. […]
Complex formation was determined using spectrophotometry. […] The maximum UV and visible light wavelength absorbance for the iron-tea polyphenol complex was determined. The maximum absorbance was 580 nm at tea pH and fortified teas were measured after 5, 20 and 60 minutes.

[3] = Complexation of iron in gallic acid solution (spectrophotometry); conditions: for Iron gallic acid complex: 0.3 mM iron; for Reduction of iron polyphenol complex formation: gallic acid
Procedure: To approximate brewed tea, a concentration of 1 g/L and pH 5 were used. Binding of iron was also tested at pH 7 to approximate the pH of the small intestine. Hydrochloric acid and sodium hydroxide were used to adjust and maintain the pH. […] Since the iron-gallate complex is coloured, spectrophotometry was used to quantify the complex formation.

Caco-2 cells = experiment: Caco-2 cell transport, bioavailable fraction in basolateral chamber (Example 3)
Procedure: The digested liquid was diluted to half with buffer in order to ensure cells survival during the experiment, and the basolateral camera was filled with 2 ml of buffer. […] The liquid from the basolateral camera was collected and sent for iron analysis using AAS.

[4] = In vitro bioaccessibility, simulated pepsin and pancreatin/bile digestion (Example 3); assay type: in vitro ADME; conditions: in tea, no EDTA protection
[5] = target pH 5, tea extract 0.1 gGAE/L, 0.3 mM iron
[6] = target pH 7, tea extract 0.1 gGAE/L, 0.3 mM iron
[7] = iron source added to tea without EDTA protection
[8] = iron source with EDTA protection, molar ratio 1:2

SMILES	Iron Complex (% FS in 1 g/L GA) [1, 5]	Iron Complex (% FS in 1 g/L GA) [1, 6]	Precipitation in tea extract [1]	Iron-polyphenol complex formation (colour) [2, 7]	Iron-polyphenol complex formation (colour) [2, 8]	Iron gallic acid complex ([3]; target pH 5, 1 g/L gallic acid)	Iron gallic acid complex ([3]; target pH 7, 1 g/L gallic acid)	Increased bioavailability with an excess of EDTA versus no protection (Caco-2 cells; in fortified tea)	Bioavailability of iron (Caco-2 cells; in tea, added without EDTA protection)	Iron Complex (% FS in 1 g/L GA) ([1]; target pH 5, tea extract 0.1 gGAE/L, 0.3 mM iron, listed as Ferric sodium EDTA)	Iron Complex (% FS in 1 g/L GA) ([1]; target pH 5, tea extract 1 gGAE/L, 0.3 mM iron)	Iron Complex (% FS in 1 g/L GA) ([1]; target pH 7, tea extract 0.1 gGAE/L, 0.3 mM iron, listed as Ferric sodium EDTA)	Iron Complex (% FS in 1 g/L GA) ([1]; target pH 7, tea extract 1 gGAE/L, 0.3 mM iron)	Reduction of iron-polyphenol complex formation ([1]; pH 5)	Reduction of iron-polyphenol complex formation ([1]; pH 7)	Reduction of iron polyphenol complex formation ([3]; pH 5)	Reduction of iron polyphenol complex formation ([3]; pH 7)	Iron Complex (% FS in 1 g/L GA) ([1]; pH 5)	Iron Complex (% FS in 1 g/L GA) ([1]; pH 7)	Bioaccessibility of iron [4]
O=C([O-])/C=C/C(=O)[O-].[Fe+2] [ferrous fumarate]	65 ± 2 % FS in 1 g/L GA	66 ± 3 % FS in 1 g/L GA	precipitation occurs	iron-polyphenol complex was formed instantaneously	effective in avoiding complex formation	103 ± 3.0%	110 ± 2.0%	4 fold	16% and 12%	–	–	–	–	–	–	–	–	–	–	–
O=C([O-])CN(CCN(CC(=O)[O-])CC(=O)[O-])CC(=O)[O-].[Fe+3].[Na+] [FeNaEDTA, ferric sodium EDTA]	3.0 ± 0.2 % FS in 1 g/L GA	3.0 ± 0.7 % FS in 1 g/L GA	not cause precipitation	complex was formed	effective in avoiding complex formation	6.2 ± 0.2%	7.0 ± 0.5%	–	–	3 % FS in 1 g/L GA	4 ± 6 % FS in 1 g/L GA	3 % FS in 1 g/L GA	70 ± 8 % FS in 1 g/L GA	96%	30%	94%±3%	93%±2%	–	–	–
O=S(=O)([O-])[O-].[Fe+2] [ferrous sulphate]	–	–	–	iron-polyphenol complex was formed instantaneously	effective in avoiding complex formation	100 ± 3.0%	100 ± 2.0%	–	–	–	–	–	–	–	–	–	–	72 ± 2 % FS in 1 g/L GA	85 ± 1 % FS in 1 g/L GA	lowest bioaccessibility
